Test results published in patent publication US8372951B2, “Cell penetrating peptides for intracellular delivery” (National Tsing Hua University, priority 2010, dated 2013).
Entries after “also recorded” stand apart in the source; their conditions may differ. Residues, ends and D or L forms follow the SMILES beside them. No end group written: not given here. *: point of attachment. FITC = O=C1OC2(c3ccc(O)cc3Oc3cc(O)ccc32)c2ccc(NC(=S)*)cc21

Experiments:
Type in all cases: cell-based
Beas-2B cells [1] = test: MTT cell viability assay; details: for cytotoxicity / cell death: Beas-2B cells, 24 h, MTT
Procedure: (§1) FIG. 7 illustrates in vitro delivery of peptidomimetic drug. (A). Cell viability assay. Beas-2B cells were incubated with 50 μM (KLAKLAK)2-ECP(32-41), ECP(32-41), or (KLAKLAK)2, at 37° C. for 24 h. Effects of (KLAKLAK)2-ECP(32-41) on the cell viability of Beas-2B, A549 and CHO-K1 cells (B), as well as Caco-2 and AGS cells (C). Cell viability in each group was determined by MTT assay and each experiment was performed in triplicate.
(§2) The cytotoxic effect of peptides on the cell growth were determined by a colorimetric assay using 3-(4,5-dimethylthiazol-2-yl)-2,5-diphenyltetrazolium bromide (MTT) (US Biological, Marblehead, Mass.). Cells were plated in a 96-well plate (1.0×10^4 cells/well) and incubated at 37° C. overnight. Each sample was incubated with the indicated concentration (1-100 μM) of peptide. Twenty-four hours after treatment with the indicated peptide, MTT was added, and cell growth was monitored at A570 to measure the mitochondrial-dependent formation of a colored product.

Caco-2 = test: MTT cell viability assay; details: Caco-2, 24 h
Procedure: as §1, §2

A549 = test: MTT cell viability assay; details: A549, 24 h
Procedure: as §1, §2

CHO-K1 = test: MTT cell viability assay; details: CHO-K1, 24 h
Procedure: as §1, §2

AGS = test: MTT cell viability assay; details: 24 h
Procedure: as §1, §2

Beas-2B cells [2] = test: Flow cytometry of cellular uptake of fluorescence-labeled peptides/proteins; details: 37° C., 30 min; for cellular uptake of peptide cargo: 5 μM
Procedure: FIG. 2 illustrates cellular uptake of ECP(32-41). Beas-2B cells were incubated with 20 μM FITC (control) or FITC-ECP(32-41) at 37° C. for 30 min. After treatment, the cells were washed with 500 μl phosphate buffered saline (PBS) and treated with trypsin at 37° C. for 10 min to remove adherent extracellular peptides. The cells were resuspended in 500 μl PBS and analyzed by flow cytometry. The cellular uptake activity was expressed as mean fluorescence intensity (MFI) using FACScalibur (BD Biosciences, Franklin Lakes, N.J.) flow cytometer (FACS). The data represented the means of triplicate incubations.
FIG. 5 illustrates in vitro delivery of peptide. Beas-2B cells were incubated with 5 μM FITC (control), FITC-Dp2 or FITC-Dp2-ECP(32-41) at 37° C. for 1 h. After treatment, cells were washed with 500 μl PBS and treated with trypsin at 37° C. for 10 min to remove adherent extracellular peptides. The cells were resuspended in 500 μl PBS and analyzed by flow cytometry. The cellular uptake activity was expressed as mean fluorescence intensity (MFI) using FACScalibur (BD Biosciences, Franklin Lakes, N.J.) flow cytometer (FACS). The data represented the means of triplicate incubations.
FIG. 6 illustrates in vitro delivery of protein. […] The cells were resuspended in 500 μl PBS and analyzed by flow cytometry. The cellular uptake activity was expressed as mean fluorescence intensity (MFI) using FACScalibur (BD Biosciences, Franklin Lakes, N.J.) flow cytometer (FACS). […]
Cells (2.0×10^5 cells/well) were plated into a 6-well microplate and cultured for 24 h in RPMI 1640 medium containing 10% heat-inactivated bovine serum (Beas-2B). After complete adhesion, the cells were incubated at 37° C. with fluorescence-labeled peptides dissolved in fresh serum-containing medium prior to washing with PBS. […] The washing cycle was repeated again and the cells were suspended in PBS and subjected to fluorescence analysis on a FACScalibur (BD Biosciences, Franklin Lakes, N.J.) flow cytometer (FACS) using 488-nm laser excitation and a 515-545-nm emission filter. […]

Beas-2B cells [3] = test: Confocal microscopy of cellular uptake and intracellular distribution; details: for entry into Beas-2B cells (minimal length requirement): 5 μM FITC-labeled peptide, 30 min
Procedure: FIG. 3 illustrates intracellular distribution of cell-penetrating ECP(32-41). Beas-2B cells were incubated with 5 μM FITC-ECP(32-41) at 37° C. for 5 or 60 min. After wash with 1 ml PBS buffer twice, the cellular uptake was analyzed by confocal laser scanning microscopy. Magnification ford: 63×. Scale bar: 50
FIG. 4 illustrates minimal length requirement of cell penetration peptide. Beas-2B cells were incubated with 5 μM FITC-ECP(32-41), FITC-ECP(32-41)D1, and FITC-ECP(32-41)D2 separately at 37° C. for 30 min. After wash with 1 ml PBS buffer twice, the cellular uptake was analyzed by confocal laser scanning microscopy. Magnification fold: 40×. Scale bar: 50
Cells (1.0×10^4 cells/well) were plated on 18-mm glass-bottomed dishes (Marienfeld, Germany) and cultured in medium containing 10% heat-inactivated fetal bovine serum for 24 h. After complete adhesion, the cell culture medium was removed, and then incubated at 37° C. in fresh medium containing the fluorescence-labeled peptides. The cells were washed with PBS, then fixed by 2% (w/v) paraformaldehyde (PFA) in PBS for 15 min, and 50 mM ammonium chloride in PBS was added to quench with fluoresce from PFA. Distribution of the fluorescence-labeled peptides in the cells was analyzed using a confocal scanning laser microscope (Zeiss).

CC(C)C[C@H](NC(=O)[C@H](CCCCN)NC(=O)[C@H](C)NC(=O)[C@H](CC(C)C)NC(=O)[C@H](CCCCN)NC(=S)Nc1ccc2c(c1)C(=O)OC21c2ccc(O)cc2Oc2cc(O)ccc21)C(=O)N[C@@H](C)C(=O)N[C@@H](CCCCN)C(=O)N[C@@H](CCCCN)C(=O)N[C@@H](CC(C)C)C(=O)N[C@@H](C)C(=O)N[C@@H](CCCCN)C(=O)N[C@@H](CC(C)C)C(=O)N[C@@H](C)C(=O)N[C@@H](CCCCN)C(=O)N[C@@H](CC(N)=O)C(=O)N[C@@H](Cc1ccc(O)cc1)C(=O)N[C@@H](CCCNC(=N)N)C(=O)N[C@@H](Cc1c[nH]c2ccccc12)C(=O)N[C@@H](CCCNC(=N)N)C(=O)N[C@@H](CS)C(=O)N[C@@H](CCCCN)C(=O)N[C@@H](CC(N)=O)C(=O)N[C@@H](CCC(N)=O)C(=O)N[C@@H](CC(N)=O)C(=O)O [(KLAKLAK)2-ECP(32-41)] ({FITC}-KLAKLAKKLAKLAKNYRWRCKNQN-OH; N-terminus and C-terminus assumed)
cytotoxicity / cell death (Beas-2B cells [1]; listed as FITC-(KLAKLAK)2-ECP(32-41)): induce markedly cell death; also recorded: strong cytotoxicity
cytotoxicity (cell viability) (Caco-2): strong cytotoxicity
cytotoxicity (cell viability) (A549): strong cytotoxicity
cytotoxicity (cell viability) (CHO-K1): strong cytotoxicity
cytotoxicity (cell viability) (AGS): strong cytotoxicity

(KLAKLAK)2: previously reported proapoptotic domain, peptidomimetic, SEQ ID NO: 6 (KLAKLAKKLAKLAK; (KLAKLAK)2) [reference compound]
cell-penetrating activity (Beas-2B cells [1]; stated with the Beas-2B viability results (FIG. 7A)): lacking

Dp2-ECP(32-41): recombinant Dp2 peptide fused with ECP(32-41), SEQ ID NO: 5 (IIHRGKPFQLEAVNYRWRCKNQN; Dp2-ECP(32-41))
cellular uptake of peptide cargo (Beas-2B cells [2]): able to enter the cells

ECP(32-41) D1: C-terminally truncated ECP(32-41) peptide, SEQ ID NO: 2 (NYRWRCKNQ; ECP(32-41)D1)
entry into Beas-2B cells (minimal length requirement) (Beas-2B cells [3]; 37° C.): entered Beas-2B cells

ECP(32-41): 10 amino acid cell penetrating peptide from eosinophil cationic protein residues 32-41, SEQ ID NO: 1 (NYRWRCKNQN; ECP(32-41))
cytotoxicity / cell death (Beas-2B cells [1]): lacking
entry into Beas-2B cells (minimal length requirement) (Beas-2B cells [3]; 37° C.): entered Beas-2B cells
intracellular localization (Beas-2B cells [3]; 5 μM, 37° C.): both cytoplasm and nucleus

ECP(32-41)D2: C-terminally truncated ECP(32-41) peptide, SEQ ID NO: 3 (NYRWRCKN; ECP(32-41)D2)
entry into Beas-2B cells (minimal length requirement) (Beas-2B cells [3]; 37° C.): could not

FITC-Dp2: Dp2 peptide (SEQ ID NO: 4), the group 2 allergen of Dermatophagoides pteronyssinus, FITC-labeled (IIHRGKPFQLEAV; not fully specified (N-terminus); also: FITC label) [reference compound]
cellular uptake of peptide cargo (Beas-2B cells [2]): only Dp2-ECP(32-41) was able to enter the cells

FITC-ECP(32-41): fluorochrome-tagged peptide, FITC-labeled ECP(32-41) (SEQ ID NO: 1) ({FITC}-NYRWRCKNQN)
cellular uptake (fluorescent signal shift) (Beas-2B cells [2]; 20 μM, trypsinized): significant uptake
fluorescence signal inside the cells (Beas-2B cells [3]; 5 μM, 5 min): a clear fluorescence signal inside the cells
fluorescence signal inside the cells (Beas-2B cells [3]; 5 μM, up to 60 min): Stronger signal
